Experimental data: patent US20240368191A1, “HETEROCYCLIC COMPOUNDS AND USES THEREOF” (Kumquat Biosciences Inc., priority 2021, published 2024)

Experiments:
[1] = Metabolic (microsomal) stability assay; details: pooled liver microsomes, pH 7.4
[2] = biological target: T1, KRAS G12D 1-169 (His-tagged, GDP-loaded) (Homo sapiens, UniProt P01116, G12D); assay: Covalent modification of KRAS protein by intact-protein LC-MS; assay type: binding; details: comparable or same conditions as K-Ras G12S
T1 construct: His -tagged GDP-loaded G12D 1-169; made in house; host or cells: E. coli, e.g. BL21 (DE3)
Protocol: Test compounds are prepared as 10 mM stock solutions in DMSO (Fisher cat #BP231-100). KRAS protein (His -tagged GDP-loaded wildtype 1-169, His -tagged GDP-loaded G12S 1-169 or His -tagged GDP-loaded G12D 1-169) is diluted to ˜2 μM in appropriate buffer (e.g., a Hepes buffer at physiological conditions). For testing KRAS modification, compounds are diluted to 50× final test concentration in DMSO in 96-well storage plates. 2 μl of the diluted 50× compounds are added to appropriate wells in the PCR plate (Fisher cat #AB-0800). ˜49 μl of the stock protein solution is added to each well of the 96-well PCR plate. Reactions are mixed carefully. The plate is sealed well with aluminum plate seal, and stored in drawer at room temperature for 24 hrs. 5 μl of 2% formic acid (Fisher cat #A117-50) in MilliQ H2O is then added to each well followed by mixing with a pipette. The plate is then resealed with aluminum seal and stored until mass spectrometry analysis.
The extent of covalent modification of KRAS proteins was determined by liquid chromatography electrospray mass spectrometry analysis of the intact proteins on a Thermo Q-Exactive Plus mass spectrometer. 20 μl of sample was injected onto a bioZen 3.6 μm Intact C4 column (Phenomenex cat #00B-4767-AN) placed in a column oven set to 40° C. and separated using a suitable LC gradient from ˜20% to ˜60% solvent B. Solvent A was 0.1% formic acid and solvent B was 0.1% formic acid in acetonitrile. HESI source settings were set to 40, 5 and 1 for the sheath, auxiliary and sweep gas flow, respectively. The spray voltage was 4 kV, and the capillary temperature was 320° C. S-lens RF level was 50 and auxiliary gas heater temperature was set to 200° C. The mass spectrometry was acquired using a scan range from 650 to 1750 m/z using positive polarity at a mass resolution of 70,000, AGC target of 1e6 ions and maximum injection time of 250 ms. The recorded protein mass spectrum was deconvoluted from the raw data file using Protein Deconvolution v4.0 (Thermo). The protein mass and adduct masses were exported with their peak intensities. The peak intensities for the unmodified and modified protein were used to calculate the percent covalent modification of the KRAS protein based on the following equation: % KRAS protein modification=((KRAS−compound)/(KRAS)+(KRAS−Compound))*100.

T1 sequence (P01116 1-169 isoform P01116-2 G12D): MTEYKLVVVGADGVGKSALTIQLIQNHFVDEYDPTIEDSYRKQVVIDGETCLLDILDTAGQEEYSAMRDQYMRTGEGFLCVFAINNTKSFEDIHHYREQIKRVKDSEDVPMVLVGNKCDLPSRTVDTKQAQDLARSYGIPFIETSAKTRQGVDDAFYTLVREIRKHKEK

| Compound | half-life at 0.5 μM [1] [min] | covalent labeling of K-Ras G12D [2] |
| --- | --- | --- |
| Nc1nc2c(-c3c(Cl)cc4c(N5CCOC6(CN(C(=O)n7cncn7)C6)C5)nc(OC[C@@]56CCCN5C[C@H](F)C6)nc4c3F)ccc(F)c2s1 [Compound A273, (8-(7-(2-amino-7-fluorobenzo-[d]thiazol-4-yl)-6-chloro-8-fluoro-2-(((2R,7aS)-2-fluoro-tetrahydro-1H-pyrrolizin-7a(5H)-yl)methoxy)quinazolin-4-yl)-5-oxa-2,8-diazaspiro[3.5]-nonan-2-yl)(1H-1,2,4-triazol-1-yl)methanone] | > 10 | – |
| N#Cc1c(N)sc2c(F)ccc(-c3c(Cl)cc4c(N5CCC6(CN(C(=O)n7cncn7)C6)C5)nc(OC[C@@]56CCCN5C[C@H](F)C6)nc4c3F)c12 [Compound A277, 4-(4-(2-(1H-1,2,4-triazole-1-carbonyl)-2,6-diazaspiro[3.4]-octan-6-yl)-6-chloro-8-fluoro-2-(((2R,7aS)-2-fluorotetrahydro-1H-pyrrolizin-7a(5H)-yl)meth-oxy)quinazolin-7-yl)-2-amino-7-fluorobenzo[b]thiophene-3-carbonitrile] | > 10 | – |
| Nc1nc2c(-c3c(Cl)cc4c(N5CCCC6(CN(C(=O)n7cncn7)C6)C5)nc(OC[C@@]56CCCN5C[C@H](F)C6)nc4c3F)ccc(F)c2s1 [Compound A136, (6-(7-(2-amino-7-fluorobenzo-[d]thiazol-4-yl)-6-chloro-8-fluoro-2-(((2R,7aS)-2-fluoro-tetrahydro-1H-pyrrolizin-7a(5H)-yl)methoxy)quinazolin-4-yl)-2,6-diazaspiro[3.5]nonan-2-yl)(1H-1,2,4-triazol-1-yl)-methanone] | > 10 | – |
| N#Cc1c(N)sc2c(F)ccc(-c3c(Cl)cc4c(N5CC6CCCN(C(=O)n7cncn7)C6C5)nc(OC[C@@]56CCCN5C[C@H](F)C6)nc4c3F)c12 (stereo partly drawn) [Compound A284, 4-(4-(1-(1H-1,2,4-triazole-1-carbonyl)octahydro-6H-pyrrolo-[3,4-b]pyridin-6-yl)-6-chloro-8-fluoro-2-(((2R,7aS)-2-fluoro-tetrahydro-1H-pyrrolizin-7a(5H)-yl)methoxy)quinazolin-7-yl)-2-amino-7-fluorobenzo-[b]thiophene-3-carbonitrile] | > 10 | – |
| Nc1nc2c(-c3c(Cl)cc4c(N5CC6(CCCN(C(=O)n7cncn7)C6)C5)nc(OC[C@@]56CCCN5C[C@H](F)C6)nc4c3F)ccc(F)c2s1 [Compound A230, (2-(7-(2-amino-7-fluorobenzo-[d]thiazol-4-yl)-6-chloro-8-fluoro-2-(((2R,7aS)-2-fluoro-tetrahydro-1H-pyrrolizin-7a(5H)-yl)methoxy)quinazolin-4-yl)-2,6-diazaspiro[3.5]nonan-6-yl)(1H-1,2,4-triazol-1-yl)-methanone] | – | essentially no detectable labeling |
| N#Cc1c(N)sc2c(F)ccc(-c3c(Cl)cc4c(OC5CCCCN(C(=O)n6cncn6)C5)nc(OC[C@@]56CCCN5C[C@H](F)C6)nc4c3F)c12 (stereo partly drawn) [Compound A258, 4-(4-((1-(1H-1,2,4-triazole-1-carbonyl)azepan-3-yl)oxy)-6-chloro-8-fluoro-2-(((2R,7aS)-2-fluorotetrahydro-1H-pyrrolizin-7a(5H)-yl)methoxy)quinazolin-7-yl)-2-amino-7-fluorobenzo-[b]thiophene-3-carbonitrile] | – | essentially no detectable labeling |
| Cc1ncn(C(=O)N2CC3CCN(c4nc(OC[C@@]56CCCN5C[C@H](F)C6)nc5c(F)c(-c6ccc(F)c7sc(N)c(C#N)c67)c(Cl)cc45)C3C2)n1 (stereo partly drawn) [Compound A304, 2-amino-4-(6-chloro-8-fluoro-2-(((2R,7aS)-2-fluorotetrahydro-1H-pyrrolizin-7a(5H)-yl)meth-oxy)-4-(5-(3-methyl-1H-1,2,4-triazole-1-carbonyl)hexahydro-pyrrolo[3,4-b]pyrrol-1(2H)-yl)quinazolin-7-yl)-7-fluoro-benzo[b]thiophene-3-carbonitrile] | – | essentially no detectable labeling |
| Nc1nc2c(-c3c(Cl)cc4c(N5CCOC6(CCN(C(=O)n7cncn7)CC6)C5)nc(OCC56CCCN5C[C@H](F)C6)nc4c3F)ccc(F)c2s1 (stereo partly drawn) [Compound A243, (4-(7-(2-amino-7-fluorobenzo-[d]thiazol-4-yl)-6-chloro-8-fluoro-2-(((2R)-2-fluorotetra-hydro-1H-pyrrolizin-7a(5H)-yl)methoxy)quinazolin-4-yl)-1-oxa-4,9-diazaspiro[5.5]undecan-9-yl)(1H-1,2,4-triazol-1-yl)-methanone] | – | essentially no detectable labeling |
| COCCN1CCC(Oc2nc(N3CCCCC4(CN(C(=O)n5cncn5)C4)C3)c3cc(Cl)c(-c4ccc(F)c5sc(N)c(C#N)c45)c(F)c3n2)CC1 [Compound A119, 4-(4-(2-(1H-1,2,4-triazole-1-carbonyl)-2,6-diazaspiro[3.6]-decan-6-yl)-6-chloro-8-fluoro-2-((1-(2-methoxyethyl)piperi-din-4-yl)oxy)quinazolin-7-yl)-2-amino-7-fluorobenzo[b]-thiophene-3-carbonitrile] | – | essentially no detectable labeling |
| Nc1nc2c(-c3c(Cl)cc4c(N5CCC6(CN(C(=O)n7cncn7)CCO6)C5)nc(OC[C@@]56CCCN5C[C@H](F)C6)nc4c3F)ccc(F)c2s1 (stereo partly drawn) [Compound A202, (2-(7-(2-amino-7-fluorobenzo-[d]thiazol-4-yl)-6-chloro-8-fluoro-2-(((2R,7aS)-2-fluoro-tetrahydro-1H-pyrrolizin-7a(5H)-yl)methoxy)quinazolin-4-yl)-6-oxa-2,9-diazaspiro[4.5]-decan-9-yl)(1H-1,2,4-triazol-1-yl)methanone] | – | essentially no detectable labeling |
| C[C@H](Oc1nc(N2CCOC3(CN(C(=O)n4cncn4)C3)C2)c2cc(Cl)c(-c3ccc(F)c4sc(N)c(C#N)c34)c(F)c2n1)[C@@H]1CCCN1C [Compound A275, 4-(4-(2-(1H-1,2,4-triazole-1-carbonyl)-5-oxa-2,8-diazaspiro-[3.5]nonan-8-yl)-6-chloro-8-fluoro-2-((S)-1-((S)-1-methyl-pyrrolidin-2-yl)ethoxy)quin-azolin-7-yl)-2-amino-7-fluoro-benzo[b]thiophene-3-carbonitrile] | – | essentially no detectable labeling |
| Nc1nc2c(-c3c(Cl)cc4c(N5CC6(CCN(C(=O)n7cncn7)C6)C5)nc(OC[C@@]56CCCN5C[C@H](F)C6)nc4c3F)ccc(F)c2s1 [Compound A279, (2-(7-(2-amino-7-fluorobenzo-[d]thiazol-4-yl)-6-chloro-8-fluoro-2-(((2R,7aS)-2-fluoro-tetrahydro-1H-pyrrolizin-7a(5H)-yl)methoxy)quinazolin-4-yl)-2,6-diazaspiro[3.4]octan-6-yl)(1H-1,2,4-triazol-1-yl)-methanone] | – | essentially no detectable labeling |
| Cc1ncn(C(=O)N2CCCC(Oc3nc(OC[C@@]45CCCN4C[C@H](F)C5)nc4c(F)c(-c5ccc(F)c6sc(N)c(C#N)c56)c(Cl)cc34)C2)n1 (stereo partly drawn) [Compound A302, 2-amino-4-(6-chloro-8-fluoro-2-(((2R,7aS)-2-fluorotetrahydro-1H-pyrrolizin-7a(5H)-yl)meth-oxy)-4-((1-(3-methyl-1H-1,2,4-triazole-1-carbonyl)piperidin-3-yl)oxy)quinazolin-7-yl)-7-fluorobenzo[b]thiophene-3-carbonitrile] | – | essentially no detectable labeling |
| N#Cc1c(N)sc2c(F)ccc(-c3c(Cl)cc4c(N5CCOC6(CN(C(=O)n7cncn7)C6)C5)nc(OC[C@@]56CCCN5C[C@H](F)C6)nc4c3F)c12 [Compound A162, 4-(4-(2-(1H-1,2,4-triazole-1-carbonyl)-5-oxa-2,8-diaza-spiro[3.5]nonan-8-yl)-6-chloro-8-fluoro-2-(((2R,7aS)-2-fluoro-tetrahydro-1H-pyrrolizin-7a(5H)-yl)methoxy)quinazolin-7-yl)-2-amino-7-fluorobenzo-[b]thiophene-3-carbonitrile] | – | essentially no detectable labeling |
| Nc1nc2c(-c3c(Cl)cc4c(N5CCC56CCCN(C(=O)n5cncn5)C6)nc(OCC56CCCN5CC(F)C6)nc4c3F)ccc(F)c2s1 (stereo not drawn) [Compound A197, (1-(7-(2-amino-7-fluorobenzo-[d]thiazol-4-yl)-6-chloro-8-fluoro-2-((2-fluorotetrahydro-1H-pyrrolizin-7a(5H)-yl)meth-oxy)quinazolin-4-yl)-1,6-diazaspiro[3.5]nonan-6-yl)(1H-1,2,4-triazol-1-yl)methanone] | – | essentially no detectable labeling |
